The record followed here is US10988766B2, “Compositions and methods used in diagnosing and treating colorectal cancer” (Oregon Health & Science University, priority 2017, dated 2021).

Common to all, as to assay type: cell-based, human
For data set [1], the system named is HCT-116 cells. Description: Proliferation in 2D culture (Cell Titer-Glo) after transfection and radiation. An excerpt:
HCT-116 cells were reverse transfected with miR-451a-5p mimics, inhibitors and their respective controls were purchased from Life Technologies using Lipofectamine RNAiMAX (Invitrogen) according to manufacturer's instructions.
Cells or mice were irradiated on a Shepherd^137 cesium irradiator at a rate of […] 1.34 cGy min. In tumour-targeted radiation experiments, mice were restrained in a lead shield (Brain Tree Scientific) to minimize exposure to the non-tumour areas.
(§1) HCT-116 cells were transfected in a 6 well plate with miR-451a-5p mimic or inhibitor, and the corresponding controls from Life Technologies as previously described. Cells were transferred to a 96 well plate 16 hours post-transfection (1000 cells/well). At 24 hours post-transfection the HCT-116 cells were irradiated with 0, 2, or 5 Gy. Cell Titer-Glo and Caspase 3/7 Glo were analyzed at 48 hours and 96 hours post-irradiation, according to manufacturer's instructions.
In general terms: ATP-based viability assays read luminescence as a measure of living cells.

Another data set has as its system HCT116. The data set can be described thus: Proliferation after radiation and 5-FU treatment. Conditions: miR-451a mimic vs control mimic, radiation and 5-FU (5 μM), 48 and 96 hours. On the procedure: FIG. 6A is a graph of HCT116 transfected with a miR-451a mimic or a control mimic. Proliferation was analyzed 48 hours after radiation and 5-FU (5 μM) treatment. Mean of triplicate wells is plotted. * indicates P<0.01 on a two-tailed Student's T-test.
FIG. 6B is a graph of HCT116 transfected with a miR-451a mimic or a control mimic. Proliferation was analyzed 96 hours after radiation and 5-FU (5 μM) treatment. Mean of triplicate wells is plotted. * indicates P<0.01 on a two-tailed Student's T-test
as §1

Data set [2] concerns HCT-116 cells. Description: Tumorsphere (3D culture) proliferation assay after transfection and radiation. Particulars: miR-451a mimic vs control mimic, 48 hours after radiation. On the procedure: FIG. 2B is a graph showing results where HCT116 were transfected with a miR-451a mimic or a control mimic. Proliferation was analyzed 48 hours after radiation in 3D cultures with the indicated doses. Bars depict mean±s.e.m. of triplicate wells. ** indicates P<0.01 on a two-tailed Student's T-test.
FIG. 3B is a graph showing results where HCT116 were transfected with a miR-451a inhibitor (anti-miR-451a) or a control anti-miR. Proliferation was analyzed 48 hours after radiation in 3D culture with the indicated doses. Bars depict mean±s.e.m. of triplicate wells. ** indicates P<0.01 on a two-tailed Student's T-test.
as §1

Data set [3] deals with HCT-116 cells. Description: Colony formation assay (surviving fraction). Conditions: miR-451a mimic vs control mimic, 0, 2 or 5 Gy, colonies counted 12-14 days after plating. On the procedure: Cells were transfected with miR-451a-5p mimic or control mimic for 16 hours. Then cells were plated (100 or 200 cells for 0Gy, 200 or 400 cells/well for 2GY and 400 or 800 cells per well for 5Gy) in triplicate in a 6-well plate. Cells were irradiated 4 hours after plating, 0Gy, 2Gy or 5Gy. Two weeks after plating, cells were fixed and stained with crystal violet and colonies were counted. Surviving fraction was calculated based on the colony numbers normalized to the plating efficiency.

Data set [4] deals with CAB39, EMSY, EREG, and MEX3C mRNAs. Description: miR-TRAP / RISC Trap assay. Conditions: HCT116 co-transfected with mutant RISC complex plasmid and miR-451a mimic or control mimic. From the text:
Fold enrichment over pre-IP mRNAs is depicted. Results are representative of two independent experiments.
HCT116 cells were co-transfected with a plasmid coding for a flag-tagged dominant negative […] mutant (Clontech kit #632016) along with a control mimic or miR-451a-5p mimic according to manufacturer instructions. Twenty-four hours later the RNA protein complexes were crosslinked and the RISC complex was immunoprecipitated using an anti-FLAG antibody and RNA was isolated for quantitative real-time PCR of target genes. The fold enrichment was calculated using pre and post IP controls as well as normalization to the control mimic pull-downs.

Data set [5] deals with CAB39, EMSY, EREG, and MEX3C mRNA in HCT-116 cells. Description: qRT-PCR of the miR-451 targets after transfection. Conditions: 24 h after transfection. The protocol:
FIG. 4C is a plot of the results of qRT-PCR of the miR-451 targets in HCT-116 cells at 24 h after transfection.
This list was narrowed by filtering genes with a known role in human colorectal cancer and/or cellular response to ionizing radiation. […] A miR-Trap assay was used to pull down mRNAs enriched at the RNA induced silencing complex in cells transfected with miR-451a.

In data set [6] the test system is HCT-116 cells reverse transfected with anti-miR-451a. Description: Chemosensitivity model: cell proliferation (CellTiter-Glo) with SHP2 and RAF inhibitors. Particulars: 3.5 uM SHP2-inhibitor, 20 uM RAF-inhibitor, alone or combined; treated 24 hours post transfection. On the procedure:
HCT-116 cells (American Type Culture Collection) were cultured in McCoy's media supplemented with 10% fetal bovine serum (FBS) and antibiotics. Cells were tested and found negative for mycoplasma contamination before use in the assays described. Cells were reverse transfected with miR-451a-5p mimics or inhibitors with their respective controls (purchased from Life Technologies), using Lipofectamine® RNAiMAX (Invitrogen) per manufacturer's instructions. We report highly efficient transfection (>90%) of mimics and inhibitors in cell culture, as measured by fluorescent miR control. Cells were irradiated in a Shepherd^137 cesium irradiator at a rate of 1.34 cGy min. HCT-116 cells were initially transfected in a six-well plate, then transferred to a 96-well plate 16 hours post-transfection (2000 cells/well). In the chemosensitivity model, HCT-116 cells were treated with SHP2 inhibitor SHP099, 6-([…]-4-methyl-1-piperidinyl)-3-(2,3-dichlorophenyl)-2-pyrazinamine (Cayman Chemical, cat#20000) (3.5 μM), and RAF inhibitor (selective paradox breaker; SelleckChem, PLX7904, N′-[3-[[5-(2-cyclopropyl-5-pyrimidinyl)-1H-pyrrolo[2,3-b]pyridin-3-yl]carbonyl]-2,4-difluorophenyl]-N-ethyl-N-methyl-sulfamide, cat#57964) (20 μM) at 24 hours post transfection. Cell proliferation was analyzed at 48 hours post irradiation, using CellTiter-Glo®, per the manufacturer's instructions.

As to “miR-451a: miR-451a-5p mimic purchased from Life Technologies, transfected into HCT-116 cells; tumor suppressor miRNA (AAACCGUUACCAUUACUGAGUU; listed as RNA, chemistry not given here; listed as Homo sapiens)”, the “proliferation in a 2D culture” value in the data set on HCT-116 cells [1] (miR-451a mimic vs control mimic, 48 hours after radiation) was “decreased proliferation”. Besides, the “effect in combination with radiation” value in the data set with HCT-116 cells [1] (on the phenotypes (proliferation, tumorsphere, colony formation), especially at the 5 Gy dose) is reported as “slight additive effect with radiation”. Moreover, the “responses to 5-FU (proliferation)” value with HCT116 was “enhanced the responses to 5-FU”. In addition, the “proliferation in a tumorsphere assay” value with HCT-116 cells [2] was “decreased proliferation”. Besides, in the data set with HCT-116 cells [3], the “surviving fraction colony formation” value is listed as “decreased proliferation”. Besides, in data set [4], the “enrichment of target mRNAs at the RNA induced silencing complex” value was “enriched at the RISC”. The “target gene expression at the mRNA level” value in data set [5] is “significant downregulation of all four target genes”.
For `CCN(C)S(=O)(=O)Nc1ccc(F)c(C(=O)c2c[nH]c3ncc(-c4cnc(C5CC5)nc4)cc23)c1F` [RAF-inhibitor, N′-[3-[[5-(2-cyclopropyl-5-pyrimidinyl)-1H-pyrrolo[2,3-b]pyridin-3-yl]carbonyl]-2,4-difluorophenyl]-N-ethyl-N-methyl-sulfamide], the cell proliferation entry in data set [6] is given as “significant decrease in cell proliferation”.
For `CC1(N)CCN(c2cnc(-c3cccc(Cl)c3Cl)c(N)n2)CC1` [SHP2-inhibitor, 6-(4-diamino-4-methyl-1-piperidinyl)-3-(2,3-dichlorophenyl)-2-pyrazinamine], the cell proliferation result in data set [6] is reported as “significant decrease in cell proliferation”.
